Here are results for 1 molecule from patent publication US20200384124A1, “VECTOR FOR PHARMACOLOGICALLY ACTIVE MATER-INSOLUBLE MOLECULES, AND PROCESS OF PREPARING SAME” (priority 2017, published 2020).

The subject of data set [1] is U-87 MG spheroids. The data set is described as follows: 3D culture spheroid size by optical microscopy. Type of data set: cell-based, human. As to the method:
Spheroids (cells in 3D culture) help to better represent the tumor environment. They are composed of necrotic cells in their center and proliferating cells in the periphery. […] The cells are maintained at 37° C. and 5% of CO2 and 10 μl of fresh medium are added every two days to all the wells (controls and treated). […] Before treatment and then every two days, the spheroids are observed under an optical microscope coupled to a camera (Nikon ECLIPSE TS100), at magnification*4.;

The next data set deals with U-87 MG cells. The experiment in a line: MTT cytotoxicity test of PTX and NPC2-PTX (2D). The format is cell-based, human. The protocol: The volume of seeding and treatment is maintained at 150 μL per well and each condition is carried out with a conventional incubation at 37° C. […] This test uses as reagent 3-(4,5-Dimethylthiazol-2-yl)-2,5-Diphenyltetrazolium Bromide (MTT), which is converted into formazan (crystal violet) by living cells. The latter absorbent at the wavelength of 600 nm is detectable by an absorbance measurement.
(§1) As soon as the formazan crystals are visible in the cells under a light field microscope, the medium is replaced by 150 μl of dimethylsulfoxide (DMSO). The cells are then lysed, the formazan crystals dissolved, and the absorbance is measured with a Multiskan spectrophotometer (Ascent, Labtec Systems with a filter at 600 nm.
(§2) The percentage of viability is obtained by comparing the absorbance value of the treated cells with the absorbance value of the untreated control cells, which is considered as a reference and equivalent to 100% of viability. The standard deviation is calculated from 3 independent experiments.

In data set [2] the test system is microtubular network in U-87-MG and HMEC-1 cells. The experiment in a line: Indirect immunofluorescence of tubulin, comparison with PTX (Example 24). The format is cell-based, human. Conditions: 10, 50 and 100 nM, 6 h of treatment. The protocol:
The U-87-MG and HMEC-1 cells are seeded on Lab-Tek® culture chambers (Nunc). […] After 6 h of treatment, the medium is replaced by a solution of ice-cold methanol making it possible to fix and permeabilize the cells. […] The labeling of the nucleus is carried out with a solution of DAPI or 4,6-diamidino-2-phenylindole (0.25 μg/ml; Sigma) for 2 min. The blade is finally mounted with Prolong® (Invitrogen) antifading. The observation is carried out with an epifluorescence microscope (Leica DM-IRBE) coupled with a digital camera (Princeton Instruments; CCD camera coolsnap FX).

For data set [3], the system named is U-87 MG spheroids. The data set is described as follows: 3D culture spheroid viability by Alamar Blue test. Type of data set: cell-based, human. The conditions noted are these: 2.8 times the IC50, Alamar Blue. As to the method: Spheroids (cells in 3D culture) help to better represent the tumor environment. They are composed of necrotic cells in their center and proliferating cells in the periphery. […] The cells are maintained at 37° C. and 5% of CO2 and 10 μl of fresh medium are added every two days to all the wells (controls and treated). […] This measurement is done in one step and uses a reagent based on resazurin, which is reduced by living cells. The reduced compound (=resofurin) is detectable by fluorescence (λex=584 nm and λem=620 nm) and the signal measured is proportional to the number of living cells. Once the above treatment has been set up, 10 μL of Alamar Blue are added to each well 7 days or 14 days after treatment and the cells are incubated 12 h before the fluorescence measurement. The data are obtained by reading the fluorescence with POLARstar Omega (BMG LABETCH) after excitation at 584 nm and reading the emission at 620 nm.
(Alamar Blue is a resazurin reagent that responds to reducing activity.)

The subject of the next data set is HMEC-1 cells. The data set is described as follows: MTT cytotoxicity test of PTX and NPC2-PTX (2D). Conditions: Homo sapiens, HMEC-1, 72 h. Type of data set: cell-based. The protocol: (§3) The volume of seeding and treatment is maintained at 150 μL per well and each condition is carried out with a conventional incubation at 37° C. A cell viability test is carried out by an MTT test after 72 h of treatment. This test uses as reagent 3-(4,5-Dimethylthiazol-2-yl)-2,5-Diphenyltetrazolium Bromide (MTT), which is converted into formazan (crystal violet) by living cells. The latter absorbent at the wavelength of 600 nm is detectable by an absorbance measurement.
as §1, §2
For orientation: Tetrazolium assays rely on reduction of a dye to a coloured formazan, in cell work by metabolically active cells.

A further data set relates to SK-N-SH cells. The experiment in a line: MTT cytotoxicity test of PTX and NPC2-PTX (2D). The format is cell-based. The conditions noted are these: Homo sapiens, 72 h. As to the method: as §3, §1, §2

As for `CC(=O)O[C@H]1C(=O)[C@@]2(C)[C@H]([C@H](OC(=O)c3ccccc3)[C@]3(O)C[C@H](OC(=O)[C@H](O)[C@@H](NC(=O)c4ccccc4)c4ccccc4)C(C)=C1C3(C)C)[C@]1(OC(C)=O)CO[C@@H]1C[C@@H]2O` [PTX, paclitaxel], the “diameter of the spheroid at day 14” value in the data set on U-87 MG spheroids [1] (2.8 times IC50 (PTX 25 nM, NPC2-PTX 70 nM)) was 757+/−22 μm; in the data set on U-87 MG spheroids [1] (4 times the IC50 (PTX 40 nM, NPC2-PTX 100 nM)), 389+/−33 μm; with U-87 MG spheroids [1] (IC50 calculated in 2D (PTX 9 nM, NPC2-PTX 25 nM)), 800+/−11 μm. The “inhibition of cell viability in 2D” value in the data set on U-87 MG cells (2.8 times the IC50) stood at 70%. Further, the IC50 – broadly, the point on the concentration scale where inhibition reaches its midpoint – in the data set with U-87 MG cells (Homo sapiens, U-87 MG, 72 h) was 9.2 ± 1.2 nM; in the data set with HMEC-1 cells it was 5.7 ± 2 nM; in the data set on SK-N-SH cells it was 40.5 ± 7.8 nM. Besides, the “effects on microtubular network and cell shape” value in data set [2] is on record as “the microtubular network is disturbed”. For the same molecule, the “decrease / inhibition of cell viability in 3D” value with U-87 MG spheroids [3] was 10%.
